Read-outs that look alike come from different tables or passages of the source.
Key:
Bcl-2 = Bcl-2 (Homo sapiens, UniProt P10415); assay: Bcl-2 binding affinity analysis (fluorescence polarization binding assay)
Summary of the method: (§1)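 Sensitive, quantitative cell-free test: compound incubated with protein, then polarization of emitted fluorescence recorded to gauge affinity.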

Bcl-xL = Bcl-xL (Homo sapiens, UniProt Q07817); assay: Bcl-xL binding affinity analysis (fluorescence polarization binding assay); design: scale not given here
Sequence of Bcl-xL (Q07817 whole entry): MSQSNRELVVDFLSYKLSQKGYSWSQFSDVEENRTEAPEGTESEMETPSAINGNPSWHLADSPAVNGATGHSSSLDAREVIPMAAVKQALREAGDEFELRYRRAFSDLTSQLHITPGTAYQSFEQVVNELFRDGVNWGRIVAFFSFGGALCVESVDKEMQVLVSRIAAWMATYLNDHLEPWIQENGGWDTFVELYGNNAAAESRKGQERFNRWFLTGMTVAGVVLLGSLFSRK
Summary of the method: as §1

[1] = test system: RL Human Follicular Lymphoma Cell Line; assay: Alamar blue cytotoxicity assay in RL cells; type: cell-based; conditions: Homo sapiens, 72 h incubation, read-out: Bcl RL Alamar Blue IC50
Protocol: (§2) When RL-cells are exposed to isoxazolidine compounds of the present invention, the inhibitors show a dose-dependent cell-killing in the Alamar blue cytoxicity assay with IC50 values of from about 100 μM to about 1 μM (See Examples). When Panc1 cells are exposed to the isoxazolidine compounds of the present invention in combination with camptothecin, the inhibitors show a synergistic dose-dependent cell killing in the propidium iodide exclusion cell survival assay with IC50 values of from about 100 μM to about 1 μM (See Examples).
• 1) Using 96 well plates, compounds were serially diluted in DMSO from 9 mM to 4 uM • 2) Assay plates were prepared by diluting samples 310 fold into 150 ul of medium containing 30,000 cells/well resulting in a final DMSO concentration of 0.3% and a concentration range from 29 uM to 0.013 uM for each compound. • 3) Plates were incubated at 37 C and 5% CO2 for 72 h • 4) After 72 h, Alamar blue reagent was added to each well and plates read according to manufacturer's instructions
In vitro cytotoxicity data for RL cells is presented below for various compounds of the invention.

[2] = test system: Human Pancreatic Cancer Cell Line Panc1; assay: Cell death assay (propidium iodide/Hoechst) in Panc1 cells with or without camptothecin; type: cell-based; conditions: 72 hours, % cell death by propidium iodide/Hoechst
Protocol: as §2
• 1) Compounds were serially diluted in DMSO from a 9 mM stock to a final concentration of 0.004 mM in a 96 well plate. • 2) Assay plates were prepared by diluting compounds 310 fold into 150 ul of medium containing 10,000 cells/well, with or without 3 uM Camptothecin, resulting in a final DMSO concentration of 0.3% and a compound concentration range from 29 uM to […] for each compound. • 3) Assay plates were incubated at 37 C, 5% CO2 for 72 hours. • 4) After 72 hours, propidium iodide and Hoechst dye were added to each well according to manufacturer's instruction. • 5) Plates were imaged on a fluorescence microscope at wavelengths Ex560/Em650 (Propidium iodide) and Ex360/Em465 (Hoechst) • 6) MetaMorph imaging software was used to determine % cell death by dividing the number of propidium iodide stained cells (dead cells) by the number of Hoechst stained cells (all cells), multipled by 100, in each field.
Panc1 invitro cellular data is presented below for various compounds of the invention.

[3] = Homo sapiens, PANC-1, without camptothecin, read-out: Panc1 − Cpt IC50
[4] = with 3 uM Camptothecin, read-out: Panc1 + Cpt IC50

Sequence of Bcl-2 (P10415 whole entry): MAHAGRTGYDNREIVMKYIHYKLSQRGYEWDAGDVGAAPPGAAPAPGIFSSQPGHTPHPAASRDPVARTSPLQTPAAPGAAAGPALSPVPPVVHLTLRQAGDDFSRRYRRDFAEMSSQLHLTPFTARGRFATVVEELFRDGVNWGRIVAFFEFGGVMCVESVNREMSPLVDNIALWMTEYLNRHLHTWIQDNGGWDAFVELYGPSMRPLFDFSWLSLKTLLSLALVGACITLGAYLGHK

| Ki (Bcl-2) [µM] | Bcl-XL binding affinity Ki (Bcl-xL) | Structure (SMILES) | IC50 [1] [µM] | IC50 [2, 3] [µM] | IC50 [2, 4] [µM] |
| --- | --- | --- | --- | --- | --- |
| < 0.8 | ♯ | CC(O)C1C(CO)ON(Cc2cccc(CN(CCN(C)C)Cc3c(F)cccc3C(F)(F)F)c2)C1C(=O)NC1CC2CC(C1C)C2(C)C (stereo not drawn) [Compound 412] | < 2 | > 2.5 | 1.3 to 1.8 |
| < 0.8 | ♯ | CC(O)C1C(CO)ON(Cc2cccc(CN(CCN(C)C)Cc3cccnc3)c2)C1C(=O)NC1CC2CC(C1C)C2(C)C (stereo not drawn) [Compound 393] | > 5 | > 2.5 | > 2.5 |
| < 0.8 | ♯ | CC(O)C1C(CO)ON(Cc2cccc(CN(Cc3ccccc3)C(C)CN(C)C)c2)C1C(=O)NC1CC2CC(C1C)C2(C)C (stereo not drawn) [Compound 431] | > 5 | > 2.5 | > 2.5 |
| < 0.8 | ♯ | CC(O)C1C(CO)ON(Cc2cccc(CN(CCN(C)C)CC3=CCCCC3)c2)C1C(=O)NC1CC2CC(C1C)C2(C)C (stereo not drawn) [Compound 354] | < 2 | 1.8 to 2.5 | 1.3 to 1.8 |
| < 0.8 | ♯ | CC(C)C[C@@H](CN(C)C)N(Cc1cccc(CN2O[C@@H](CO)C([C@H](C)O)[C@H]2C(=O)N[C@H]2C[C@H]3C[C@@H]([C@@H]2C)C3(C)C)c1)Cc1ccccc1O (stereo partly drawn) [Compound 300] | < 2 | > 2.5 | 1.8 to 2.5 |
| < 0.8 | ♯ | CC(O)C1C(CO)ON(Cc2cccc(CN(Cc3ccccc3)C(CN(C)C)c3ccccc3)c2)C1C(=O)NC1CC2CC(C1C)C2(C)C (stereo not drawn) [Compound 418] | 2 to 5 | 1.8 to 2.5 | 1.8 to 2.5 |
| < 0.8 | ♯ | CC(O)C1C(CO)ON(Cc2cccc(CN(CCN(C)C)Cc3nccs3)c2)C1C(=O)NC1CC2CC(C1C)C2(C)C (stereo not drawn) [Compound 395] | > 5 | > 2.5 | > 2.5 |
| < 0.8 | ♯ | CC(O)C1C(CO)ON(Cc2cccc(CN(CCN(C)C)Cc3ccccn3)c2)C1C(=O)NC1CC2CC(C1C)C2(C)C (stereo not drawn) [Compound 413] | > 5 | > 2.5 | > 2.5 |
| < 0.8 | ♯ | CC(O)C1C(CO)ON(Cc2cccc(CN(CCN(C)C)Cc3ccc4ccccc4c3)c2)C1C(=O)NC1CC2CC(C1C)C2(C)C (stereo not drawn) [Compound 375] | > 5 | > 2.5 | > 2.5 |
| < 0.8 | ♯ | CC(C)CC(CN(C)C)N(Cc1cccc(CN2OC(CO)C(C(C)O)C2C(=O)NC2CC3CC(C2C)C3(C)C)c1)Cc1c(F)cccc1C(F)(F)F (stereo not drawn) [Compound 339] | < 2 | > 2.5 | > 2.5 |
| < 0.8 | ♯ | CC(C)CC(CN(C)C)N(Cc1cccc(CN2OC(CO)C(C(C)O)C2C(=O)NC2CC3CC(C2C)C3(C)C)c1)Cc1ccccc1C(F)(F)F (stereo not drawn) [Compound 321] | < 2 | < 1.3 | < 1.3 |
| < 0.8 | ♯ | CC(O)C1C(CO)ON(Cc2cccc(CN(CCN(C)C)Cc3cccc(Br)c3)c2)C1C(=O)NC1CC2CC(C1C)C2(C)C (stereo not drawn) [Compound 366] | 2 to 5 | 1.8 to 2.5 | 1.8 to 2.5 |
| < 0.8 | ♯ | CC(O)C1C(CO)ON(Cc2cccc(CN(CCN(C)C)Cc3ccccc3C(F)(F)F)c2)C1C(=O)NC1CC2CC(C1C)C2(C)C (stereo not drawn) [Compound 357] | 2 to 5 | > 2.5 | > 2.5 |
| < 0.8 | ♯ | CC(O)C1C(CO)ON(Cc2cccc(CNC(CC3CCCCCC3)CN(C)C)c2)C1C(=O)NC1CC2CC(C1C)C2(C)C (stereo not drawn) [Compound 472] | 2 to 5 | > 2.5 | > 2.5 |
| < 0.8 | ♯ | CC(C)CC(CN(C)C)N(Cc1cccc(CN2OC(CO)C(C(C)O)C2C(=O)NC2CC3CC(C2C)C3(C)C)c1)Cc1ccccc1Br (stereo not drawn) [Compound 309] | < 2 | > 2.5 | 1.3 to 1.8 |
| < 0.8 | ♯ | COc1c(CN2O[C@@H](CO)[C@@H]([C@H](C)O)[C@H]2C(=O)N[C@H]2C[C@H]3C[C@@H]([C@@H]2C)C3(C)C)cccc1-c1cccc(C(=O)N[C@H](CN(C)C)c2ccccc2)c1 [Compound 491] | 2 to 5 | – | – |

| Ki (Bcl-2) [µM] | Bcl-XL binding affinity Ki (Bcl-xL) | Structure (SMILES) | IC50 [1] [µM] | IC50 [2, 3] [µM] | IC50 [2, 4] [µM] |
| --- | --- | --- | --- | --- | --- |
| < 0.8 | ♯ | CC(C)C[C@H](CN(C)C)NC(=O)Nc1cccc(CN2O[C@@H](CO)[C@@H]([C@H](C)O)[C@H]2C(=O)NC2C[C@H]3C[C@@H]([C@@H]2C)C3(C)C)c1 (stereo partly drawn) [Compound 562] | > 5 | – | – |
| < 0.8 | ♯ | COc1c(CN2O[C@@H](CO)[C@@H]([C@H](C)O)[C@H]2C(=O)N[C@H]2C[C@H]3C[C@@H]([C@@H]2C)C3(C)C)cccc1-c1cccc(C(=O)N[C@@H](CCc2ccccc2)CN(C)C)c1 [Compound 481] | 2 to 5 | – | – |
| < 0.8 | ♯ | C[C@@H]1[C@@H](NC(=O)[C@@H]2[C@H]([C@H](C)O)[C@H](CO)ON2Cc2cccc(NC(=O)N(C)[C@H](CC3CCCCC3)CN(C)C)c2)C[C@H]2C[C@@H]1C2(C)C [Compound 576] | 2 to 5 | – | – |
| < 0.8 | ♯ | CC(O)C1C(CO)ON(Cc2cccc(CN(CCN(C)C)Cc3ccccc3-c3ccccc3)c2)C1C(=O)NC1CC2CC(C1C)C2(C)C (stereo not drawn) [Compound 340] | 2 to 5 | – | – |
| < 0.8 | ♯ | C[C@@H]1[C@@H](NC(=O)[C@@H]2[C@H]([C@H](C)O)[C@H](CO)ON2Cc2cccc(NC(=O)N(C)[C@@H](CC3CCCCC3)CN(C)C)c2)C[C@H]2C[C@@H]1C2(C)C [Compound 575] | 2 to 5 | – | – |
| < 0.8 | ♯ | CC(O)C1C(CO)ON(Cc2cccc(CN3CCN(C)CC3)c2)C1C(=O)NC1CC2CC(C1C)C2(C)C (stereo not drawn) [Compound 447] | > 5 | – | – |
| < 0.8 | ♯ | CC(O)C1C(CO)ON(Cc2cccc(CN3CCN(C)CC3c3ccccc3)c2)C1C(=O)NC1CC2CC(C1C)C2(C)C (stereo not drawn) [Compound 473] | > 5 | – | – |
| < 0.8 | ♯ | CC(O)C1C(CO)ON(Cc2cccc(CN(CCN(C)C)Cc3cccc(Cl)c3)c2)C1C(=O)NC1CC2CC(C1C)C2(C)C (stereo not drawn) [Compound 361] | 2 to 5 | – | – |
| < 0.8 | ♯ | CC(C)CN(CCN(C)C)Cc1cccc(CN2OC(CO)C(C(C)O)C2C(=O)NC2CC3CC(C2C)C3(C)C)c1 (stereo not drawn) [Compound 379] | > 5 | – | – |
| < 0.8 | ♯ | C[C@@H]1[C@@H](NC(=O)[C@@H]2[C@H]([C@H](C)O)[C@H](CO)ON2Cc2cccc(NC(=O)N[C@H](Cc3ccccc3)CN(C)C)c2)C[C@H]2C[C@@H]1C2(C)C [Compound 571] | > 5 | – | – |
| < 0.8 | ♯ | CC(O)C1C(CO)ON(Cc2cccc(CN(Cc3ccccc3)C3CCN(C)C3)c2)C1C(=O)NC1CC2CC(C1C)C2(C)C (stereo not drawn) [Compound 429] | 2 to 5 | – | – |
| < 0.8 | ♯ | C[C@@H]1[C@@H](NC(=O)[C@@H]2[C@H]([C@H](C)O)[C@H](CO)ON2Cc2cccc(N(CCCN(C)C)Cc3ccccc3C(F)(F)F)c2)C[C@H]2C[C@@H]1C2(C)C [Compound 585] | 2 to 5 | – | – |
| < 0.8 | ♯ | CC(O)C1C(CO)ON(Cc2cccc(CN(CCN(C)C)Cc3cccc(C(F)(F)F)c3)c2)C1C(=O)NC1CC2CC(C1C)C2(C)C (stereo not drawn) [Compound 398] | > 5 | – | – |
| < 0.8 | ♯ | C[C@@H]1[C@@H](NC(=O)[C@@H]2C([C@H](C)O)[C@H](CO)ON2Cc2cccc(CN3[C@@H](CN(C)C)CC[C@H]3c3ccccc3)c2)C[C@H]2C[C@@H]1C2(C)C (stereo partly drawn) [Compound 448] | 2 to 5 | – | – |
| < 0.8 | ♯ | CC(C)CC(CN(C)C)N(Cc1cccc(CN2OC(CO)C(C(C)O)C2C(=O)NC2CC3CC(C2C)C3(C)C)c1)Cc1cccc(C(F)(F)F)c1 (stereo not drawn) [Compound 326] | 2 to 5 | – | – |

From US7851637B2, “Compounds and methods for inhibiting the interaction of BCL proteins with binding partners” (Infinity Pharmaceuticals, Inc., priority 2004, dated 2010)
